Data on 39 compounds can be found in patent publication US11498923B2 (Merck Sharp & Dohme Corp., priority 2017, dated 2022).

Structures are written as SMILES. pKi: −log10 of the molar value.

The target of one experiment is T1, human A2a receptor (Homo sapiens, UniProt P29274).
T1 construct: purchased Perkin-Elmer RBHA2AM400UA; host or cells: HEK293 cells, used as a membrane preparation
T1 sequence (P29274 whole entry): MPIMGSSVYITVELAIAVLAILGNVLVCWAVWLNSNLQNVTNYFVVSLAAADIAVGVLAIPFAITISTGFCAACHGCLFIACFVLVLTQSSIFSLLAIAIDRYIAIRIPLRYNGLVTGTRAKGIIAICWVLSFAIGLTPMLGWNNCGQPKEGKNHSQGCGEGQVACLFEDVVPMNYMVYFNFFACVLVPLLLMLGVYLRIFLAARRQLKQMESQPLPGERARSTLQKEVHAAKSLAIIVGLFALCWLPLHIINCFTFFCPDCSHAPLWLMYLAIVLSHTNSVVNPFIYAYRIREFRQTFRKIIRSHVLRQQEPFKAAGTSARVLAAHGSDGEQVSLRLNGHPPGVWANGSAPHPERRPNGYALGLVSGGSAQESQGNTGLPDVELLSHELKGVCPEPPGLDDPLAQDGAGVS
Briefly: A2a receptor competition binding assay (Scintillation Proximity). Particulars: A2a Ki, membranes from HEK293 cells expressing human A2a receptor; 0.5 nM tritiated ligand; Cheng-Prusoff. The procedure, abridged:
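Ki values were obtained with the Cheng-Prusoff equation from competition curves against 0.5 nM tritiated antagonist, scintillation proximity counting after 1 h room-temperature incubation. Receptor came from HEK293 membranes pretreated with adenosine deaminase; compound final range 3000–0.15 nM, buffer Ca/Mg-free PBS with 10 mM MgCl2.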
Background: Scintillation proximity formats need no separation of bound from free tracer.
Broadly, the pKi is the negative decadic logarithm of the Ki, by convention in mol/L. The compound `COc1cccc2c1nc(N)n1cc(C(=O)N3C4CCC3COC4)nc21` [Ex-224, (5-amino-7-methoxyimidazo[1,2-c]quinazolin-2-yl)(3-oxa-8-azabicyclo[3.2.1]octan-8-yl)methanone] had a pKi of 8.09.

The experiment is the same for the next values; noted with them: membranes from HEK293 cells expressing human A2a receptor; 0.5 nM tritiated ligand; Cheng-Prusoff; read-out: A2a Ki.
Take `CC(=O)Nc1ccc2c(c1)CCN(C(=O)c1cn3c(N)nc4c(F)cccc4c3n1)C2` [Ex-288, N-(2-(5-amino-7-fluoroimidazo[1,2-c]quinazoline-2-carbonyl)-1,2,3,4-tetrahydroisoquinolin-6-yl)acetamide]: the negative logarithm of the Ki (pKi) was 7.26.

Take `COc1cccc2c1nc(N)n1cc(Cc3ccccc3N3CCCC3)nc21` [Ex-29, 7-methoxy-2-(2-(pyrrolidin-1-yl)benzyl)imidazo[1,2-c]quinazolin-5-amine]: the pKi was 8.80.

As for `Nc1nc2c(F)cccc2c2nc(C(=O)N3CCCC4(CCNC4)C3)cn12` (stereo not drawn) [Ex-266, (5-amino-7-fluoroimidazo[1,2-c]quinazolin-2-yl)(2,7-diazaspiro[4.5]decan-7-yl)methanone], the pKi is 6.66.

As to `COc1ccccc1CN1CCC(Cc2cn3c(N)nc4c(F)cccc4c3n2)CC1` [Ex-311, 7-fluoro-2-((1-(2-methoxybenzyl)-piperidin-4-yl)-methyl)imidazo-[1,2-c]quinazolin-5-amine], the pKi is 7.03.

`COc1cccc2c1nc(N)n1cc(C(=O)N3CCCCC3)nc21` [Ex-190, (5-amino-7-methoxyimidazo[1,2-c]quinazolin-2-yl)(piperidin-1-yl)methanone]: the negative-log Ki (pKi) was 7.68.

Take `Nc1nc2c(F)cccc2c2nc(C(=O)N3CCc4cc(NC(=O)c5ccccn5)ccc4C3)cn12` [Ex-286, N-(2-(5-amino-7-fluoroimidazo[1,2-c]quinazoline-2-carbonyl)-1,2,3,4-tetrahydroisoquinolin-6-yl)picolinamide]: the pKi is 7.72.

With `Nc1nc2ccccc2c2nc(Cc3cccc4cccnc34)cn12` [Ex-15, 2-(quinolin-8-ylmethyl)imidazo[1,2-c]quinazolin-5-amine], the pKi was 8.70.

On to `Nc1nc2c(F)cccc2c2nc(C(=O)N3CCC4(CCN(C(=O)Cc5ccc(F)c(F)c5)C4)C3)cn12` (stereo not drawn) [Ex-282, 1-(7-(5-amino-7-fluoroimidazo[1,2-c]quinazoline-2-carbonyl)-2,7-diazaspiro[4.4]nonan-2-yl)-2-(3,4-difluorophenyl)ethan-1-one], for which the pKi was 7.49.

In the case of `COc1cccc2c1nc(N)n1cc(Cc3c(Cl)cccc3Cl)nc21` [Ex-23, 2-(2,6-dichlorobenzyl)-7-methoxyimidazo[1,2-c]quinazolin-5-amine], the negative logarithm of the Ki (pKi) was 8.68.

For the compound `COc1cccc2c1nc(N)n1cc(C(=O)N3CCC4(CC3)CC4)nc21` [Ex-201, (5-amino-7-methoxyimidazo[1,2-c]quinazolin-2-yl)(6-azaspiro[2.5]octan-6-yl)methanone], the pKi is 7.85.

`COc1ccc(CN2CCC(Cc3cn4c(N)nc5c(F)cccc5c4n3)CC2)cc1` [Ex-309, 7-fluoro-2-((1-(4-methoxybenzyl)-piperidin-4-yl)-methyl)imidazo-[1,2-c]quinazolin-5-amine]: the pKi was 6.82.

`CC(=O)N1CCC2(CCN(C(=O)c3cn4c(N)nc5c(F)cccc5c4n3)CC2)C1` [Ex-269, 1-(8-(5-amino-7-fluoroimidazo[1,2-c]quinazoline-2-carbonyl)-2,8-diazaspiro[4.5]decan-2-yl)ethan-1-one]: the pKi is 6.70.

Turning to `Cc1cccc(CNC(=O)c2cn3c(N)nc4c(F)cccc4c3n2)n1` [Ex-295, 5-amino-7-fluoro-N-((6-methylpyridin-2-yl)methyl)imidazo[1,2-c]quinazoline-2-carboxamide], the pKi was 8.21.

`COc1cccc2c1nc(N)n1cc(C(=O)N3CCCC4(CC4)C3)nc21` [Ex-174, (5-amino-7-methoxyimidazo[1,2-c]quinazolin-2-yl)(5-azaspiro[2.5]octan-5-yl)methanone]: the pKi is 8.64.

For `CC(=O)N1CCC2(CCN(C(=O)c3cn4c(N)nc5c(F)cccc5c4n3)C2)C1` (stereo not drawn) [Ex-274, 1-(7-(5-amino-7-fluoroimidazo[1,2-c]quinazoline-2-carbonyl)-2,7-diazaspiro[4.4]nonan-2-yl)ethan-1-one], the pKi was 7.49.

For `Nc1nc2c(F)cccc2c2nc(CCc3ccccn3)cn12` [Ex-101, 7-fluoro-2-(2-(pyridin-2-yl)ethyl)imidazo[1,2-c]quinazolin-5-amine], the pKi was 8.07.

As to `COc1ccnc(C(=O)N2CCC(Cc3cn4c(N)nc5c(F)cccc5c4n3)CC2)c1` [Ex-320, (4-((5-amino-7-fluoroimidazo[1,2-c]quinazolin-2-yl)-methyl)piperidin-1-yl)(4-methoxypyridin-2-yl)methanone], the pKi was 7.52.

As to `CCN(CC)C(=O)C1CCCN(C(=O)c2cn3c(N)nc4c(OC)cccc4c3n2)C1` (stereo not drawn) [Ex-194, 1-(5-amino-7-methoxyimidazo[1,2-c]quinazoline-2-carbonyl)-N,N-diethylpiperidine-3-carboxamide], the pKi is 7.68.

Consider `CC(C)(C)OC(=O)N1CCN(c2ccccc2CNC(=O)c2cn3c(N)nc4c(F)cccc4c3n2)CC1` [Ex-256, tert-butyl 4-(2-((5-amino-7-fluoroimidazo[1,2-c]quinazoline-2-carboxamido)methyl)phenyl) piperazine-1-carboxylate], for which the pKi is 8.35.

With `COc1cccc2c1nc(N)n1cc(C(=O)N3CCC[C@H]3C(F)(F)F)nc21` [Ex-211, (S)-(5-amino-7-methoxyimidazo[1,2-c]quinazolin-2-yl)(2-(trifluoromethyl)pyrrolidin-1-yl)methanone], the pKi was 7.85.

With `Nc1nc2c(F)cccc2c2nc(CNCc3ccc(F)cc3)cn12` [Ex-142], the negative-log Ki (pKi) was 6.89.

Take `Nc1nc2c(Br)cccc2c2nc(CNCc3ccccc3)cn12` [Ex-140, 2-((benzylamino)methyl)-7-bromoimidazo[1,2-c]quinazolin-5-amine]: the pKi is 8.04.

Turning to `COc1cccc2c1nc(N)n1cc(CN3CCc4cccnc4C3)nc21` [Ex-120, 2-((5,8-dihydro-1,7-naphthyridin-7(6H)-yl)methyl)-7-methoxyimidazo[1,2-c]quinazolin-5-amine], the pKi is 8.38.

As to `Nc1nc2c(F)cccc2c2nc(Cc3cccc4c3CCN(CCc3ccccn3)C4)cn12` [Ex-57, 7-fluoro-2-((2-(2-(pyridin-2-yl)ethyl)-1,2,3,4-tetrahydroisoquinolin-5-yl)methyl)imidazo[1,2-c]quinazolin-5-amine], the pKi is 7.74.

For `Nc1nc2c(F)cccc2c2nc(C(=O)NCc3cccc(Br)n3)cn12` [Ex-294, 5-amino-N-((6-bromopyridin-2-yl)methyl)-7-fluoroimidazo[1,2-c]quinazoline-2-carboxamide], the pKi was 8.28.

`Nc1nc2ccc(F)cc2c2nc(Cc3ccccc3)cn12` [Ex-08, 2-benzyl-9-fluoroimidazo[1,2-c]quinazolin-5-amine]: the pKi was 8.44.

Take `COc1cccc2c1nc(N)n1cc(CN3CC(c4cccc(Cl)c4)C3)nc21` [Ex-144, 2-((3-(3-chlorophenyl)azetidin-1-yl)methyl)-7-methoxyimidazo[1,2-c]quinazolin-5-amine]: the negative logarithm of the Ki (pKi) is 7.89.

For `Nc1nc2c(F)cccc2c2nc(Cc3cc(F)ccc3-c3cncnc3)cn12` [Ex-81, 7-fluoro-2-(5-fluoro-2-(pyrimidin-5-yl)benzyl)imidazo[1,2-c]quinazolin-5-amine], the pKi is 7.85.

Take `COc1ccc(N2CCN(CCc3cn(Cc4cn5c(N)nc6c(F)cccc6c5n4)nn3)CC2)cc1` [Ex-97, 7-fluoro-2-((4-(2-(4-(4-methoxyphenyl)piperazin-1-yl)ethyl)-1H-1,2,3-triazol-1-yl)methyl)imidazo[1,2-c]quinazolin-5-amine]: the pKi was 7.02.

On to `COc1cccc2c1nc(N)n1cc(C(=O)N3CCCC4(CCCCO4)C3)nc21` (stereo not drawn) [Ex-204, (5-amino-7-methoxyimidazo[1,2-c]quinazolin-2-yl)(1-oxa-8-azaspiro[5.5]undecan-8-yl)methanone], for which the negative-log Ki (pKi) is 7.92.

For `Cc1cccc(C(=O)N2CCC(Cc3cn4c(N)nc5c(F)cccc5c4n3)CC2)n1` [Ex-324, (4-((5-amino-7-fluoroimidazo[1,2-c]quinazolin-2-yl)-methyl)piperidin-1-yl)(6-methylpyridin-2-yl)methanone], the pKi is 7.36.

For the compound `Nc1nc2c(F)cccc2c2nc(Cc3cccc(CN4CCOCC4)c3)cn12` [Ex-33, 7-fluoro-2-(3-(morpholinomethyl)benzyl)imidazo[1,2-c]quinazolin-5-amine], the pKi is 8.52.

On to `Nc1nc2c(F)cccc2c2nc(CC3CCN(Cc4cccnc4)CC3)cn12` [Ex-313, 7-fluoro-2-((1-(pyridin-3-yl-methyl)piperidin-4-yl)methyl)imidazo-[1,2-c]quinazolin-5-amine], for which the pKi is 6.51.

On to `Nc1nc2c(F)cccc2c2nc(CC3CCN(Cc4ccccc4)CC3)cn12` [Ex-304, 2-((1-benzylpiperidin-4-yl)methyl)-7-fluoro-imidazo[1,2-c]quina-zolin-5-amine], for which the pKi is 7.35.

As to `Nc1nc2c(F)cccc2c2nc(Cc3ccc(-c4nnc(CN5CCOCC5)o4)cc3)cn12` [Ex-91, 7-fluoro-2-(4-(5-(morpholinomethyl)-1,3,4-oxadiazol-2-yl)benzyl)imidazo[1,2-c]quinazolin-5-amine], the pKi was 7.19.

Take `COc1cccc2c1nc(N)n1cc(C(=O)N3CC[C@H](F)C3)nc21` [Ex-215, (S)-(5-amino-7-methoxyimidazo[1,2-c]quinazolin-2-yl)(3-fluoropyrrolidin-1-yl)methanone]: the pKi is 8.13.

With `COc1cccc2c1nc(N)n1cc(Cc3ccccc3CN3CCN(c4ccccc4)CC3)nc21` [Ex-67], the pKi was 8.66.

With `CCCN1CCC2(CCN(C(=O)c3cn4c(N)nc5c(F)cccc5c4n3)CC2)C1` [Ex-277, (5-amino-7-fluoroimidazo[1,2-c]quinazolin-2-yl)(2-propyl-2,8-diazaspiro[4.5]decan-8-yl)methanone], the pKi is 6.37.
